Like-named read-outs stand apart in the source and are kept apart here.

The source of these data is US11612577B2, “Biomarkers of METAP2 inhibitors and applications thereof” (SynDevRx, Inc., priority 2018, dated 2023).

The nature of series [1]: BYL-719 induced hyperglycemia in C57Bl/6 mice, ZGN-1061 pre-treatment. Format: in vivo. As to the method:
The following is an example showing that MetAP2 inhibitors, specifically ZGN-1061 can be used in combination with PI3K inhibitors, specifically BYL-719, to treat cancer and to attenuate treatment-induced metabolic dysfunction. In this example, male C57BI/6 mice, age 10-12 weeks, were used. The mice (n=8/treatment group) were administered doses of either vehicle control (10 mM phosphate in 5% mannitol, pH 7.2), ZGN-1061 alone, ZGN-1061 in combination with BYL-719 or BYL-719 alone, as indicated in Table 4. In Table 4, the time of dose indicates the time relative to the administration of BYL-719. Blood glucose was monitored using 10 ul of blood taken from the tail of the mice and a glucometer, starting prior to the BYL-719 administration (time 0) and then again at various times points (15, 30, 60, 90, 120 and 180 minutes) after the administration of BYL-719.

For series [2] the following is noted: cited from earlier work.
For series [3] the following is noted: cited from earlier work. This is another data set of the same source.
For series [4] the following is noted: requires extended intravenous administration; cited from earlier work.
For series [5] the following is noted: human, in vivo; cited from earlier work.

For `Cc1nc(NC(=O)N2CCC[C@H]2C(N)=O)sc1-c1ccnc(C(C)(C)C(F)(F)F)c1` [BYL-719, alpelisib], the blood glucose result in series [1] (BYL-719 45 mg/kg PO, male C57Bl/6 mice) is recorded as “elicited robust hyperglycemia”.

On to `CO[C@@H]1[C@H](OC(=O)/C=C/c2ccc(OCCN(C)C)cc2)CC[C@]2(CO2)[C@H]1[C@@]1(C)O[C@@H]1CC=C(C)C` [CKD-732], for which, in series [2] (every fourth day schedule, confusion and insomnia), the MTD was 15 mg/m2/day. Moreover, the body weight result in series [3] (C57BL/6J mice and SD rats, 5 mg/kg/day) is given as “weight loss”.

Take `CO[C@@H]1[C@H](OC(=O)NC(=O)CCl)CC[C@]2(CO2)[C@H]1[C@@]1(C)O[C@@H]1CC=C(C)C` [TNP-470, chloroacetylcarbamoylfumagillol]: in series [2] (dose-limiting neurotoxicity), the toxicity in humans entry was “too toxic for human use”. Besides, in series [2] (in combination with paclitaxel, dosed three times per week, neuropsychiatric toxicities), the MTD is listed as 60 mg/m2. Further, in series [4], the half-life entry is listed as “short half-life”. The obesity result in series [3] (mice, 15 or 20 mg/kg every other day) is “prevention of obesity”. The body weight entry in series [3] (ob/ob mice, daily doses 2.5 mg/kg to 10 mg/kg) was “weight loss”.

As to `CO[C@@H]1[C@H](OC(=O)N2CC(CCN3CCOCC3)C2)CC[C@]2(CO2)[C@H]1[C@@]1(C)O[C@@H]1CC=C(C)C` [ZGN-1061], in series [1] (pre-treatment 0.5 mg/kg SC at -4 h, -24 h or -72 h (QD x3) before BYL-719 45 mg/kg PO), the “hyperglycemia induced by BYL-719” value is “attenuated hyperglycemia”.

Turning to `CO[C@@H]1[C@H](OC(=O)/C=C/C=C/C=C/C=C/C(=O)O)CC[C@]2(CO2)[C@H]1[C@@]1(C)O[C@@H]1CC=C(C)C` [fumagillin], in series [3] (C57BL/6 mice, oral 1 mg/kg daily), the body weight entry was “weight loss”.

Take pembrolizumab: in series [5], the “patients with grade 3 or 4 hyperglycemia” value is listed as 3-6% and the “patients with hyperglycemic events” value was 45-49%.
